Here are results for 2 molecules from patent publication EP2550964A1, “Temsirolimus for use in the prevention and/or treatment of a delta 9-tetrahydrocannabinol-induced anxiety disorder” (Universitat Pompeu-Fabra, priority 2011, dated 2013).

Format in all cases: in vivo
Data set [1] concerns mice. As to the method: Elevated plus maze test. The elevated plus maze test was performed in a black Plexiglas apparatus with four arms (29 cm long x 5 cm wide) set in cross from a neutral central square (5 cm x 5 cm) elevated 40 cm above the floor. Five-min test sessions were performed 120 min after drug administration through intraperitoneal injection (temsirolimus and/or THC, and their vehicles). The percentage of time spent in the open arms was determined as a measure of anxiety-like processes. The model is based on rodents' aversion of open spaces. Anxiety reduction in the elevated plus maze test is indicated by an increase in the proportion of time spent in the open arms

Data set [2] has as its system mice. The data set can be described thus: Antinociception, acetic acid visceral pain test (number of writhes). As to the method: This visceral pain test was performed 120 min after THC administration. Mice received an i.p. administration of acetic acid (0.8 % solution) injected in a volume of […] of body weight. Immediately after, mice were placed in individual transparent cylinders (16 cm high, 16 cm diameter) for 20 min. The number of writhes was counted during 15 min, starting 5 min after acetic acid administration.

Data set [3] has as its system mice. Put plainly: Object-recognition task (V-maze, discrimination index). As to the method:
Object-recognition memory was assayed in the V-maze, a black Plexiglas maze with two corridors (30 cm long x 4.5 cm wide) set in V with a 90 degrees angle, and 15 cm high walls. The test was performed as previously described (Puighermanal, E. et al., 2009. Nature Neuroscience, 12:1152-1158). Briefly, a discrimination index was calculated in the test session. All the drugs (temsirolimus or THC and their vehicles) were injected intraperitoneally after the training session. Objects to be explored in the test were made out of different materials (marble, wood or plastic) and shapes, and had been tested in previous experiments to show no preference or dislike for control mice. On the first day, mice were placed for 9 min in the V-maze for habituation. On the second day, mice were placed back in the V-maze where two objects were positioned at the end of the corridors. On the next day (test day), mice were placed in the V-maze where one of the objects was replaced by a new object. The time spent exploring the familiar object (Tf) and the novel object (Tn) were counted and the discrimination index (D.I.) was calculated as follows: D.I.= [Tn-Tf]/[Tn+Tf]. D.I. close to zero means a cognitive deficit, while D.I. close to 0.5 means a good cognitive function in this memory test.

Take `CO[C@H]1C[C@@H]2CC[C@@H](C)[C@@](O)(O2)C(=O)C(=O)N2CCCC[C@H]2C(=O)O[C@H]([C@H](C)C[C@@H]2CC[C@@H](OC(=O)C(C)(CO)CO)[C@H](OC)C2)CC(=O)[C@H](C)/C=C(\C)[C@@H](O)[C@@H](OC)C(=O)[C@H](C)C[C@H](C)/C=C/C=C/C=C/1C` [temsirolimus, (1R,2R,4S)-4-{(2R)-2-[(3S,6R,7E,9R,10R,12R,145,15E,17E,19E,215,23S,26R,27R,34aS)-9,27-dihydroxy-10,21-dimethoxy-6,8,12,14,20,26-hexamethyl-1,5,11,28,29-pentaoxo-1,4,5,6,9,10,11,12,13,14,21,22,23,24,25,26,27,28,29,31,32,33,34,34a-tetracosahydro-3H-23,27-epoxypyrido[2,1-c][1,4]oxazacyclohentriacontin-3-yl]propyl}-2-methoxycyclohexyl 3-hydroxy-2-(hydroxymethyl)-2-methylpropanoate]: in the data set on mice [1] (temsirolimus 1 mg/kg/day (3 mg/m^2/day), THC 0.3 mg/kg/day (0.9 mg/m^2/day), Figure 5), the “influence on the anxiolytic effect of THC” value was “does not avoid the anxiolytic effect”. Further, in the data set with mice [1] (temsirolimus 1 mg/kg/day (3 mg/m^2/day), THC 10 mg/kg/day (30 mg/m^2/day), i.p., test 120 min after administration, Figure 4), the “blockade of the anxiogenic effects of THC” value is “blocks the anxiogenic effects”. For the same molecule, the “influence on the analgesic capacity of THC” value in the data set with mice [2] (pre-treatment with temsirolimus 1 mg/kg/day (3 mg/m^2/day) and THC 10 mg/kg/day (30 mg/m^2/day), Figure 6) is listed as “does not affect the analgesic capacity of THC”. Moreover, in the data set on mice [3] (pre-treatment with temsirolimus 1 mg/kg/day (3 mg/m^2/day), THC 10 mg/kg/day (30 mg/m^2/day), Figure 2), the “blockade of the amnesic effect of THC” value was “blocks the amnesic effect”. Moreover, the “prevention of the THC cognitive deficit on chronic co-administration” value with mice [3] (temsirolimus 1 mg/kg/day (3 mg/m^2/day) together with THC 10 mg/kg/day (30 mg/m^2/day), chronic, Figure 3B) was “prevented the appearance of the THC cognitive deficit”. For the same molecule, in the data set on mice [3] (temsirolimus alone, 1 mg/kg/day (3 mg/m^2/day), i.p., Figure 1), the “effects on the recognition memory” value is given as “does not have effects on the recognition memory”. Also, the “amnesic effects (object-recognition test)” value in the data set on mice [3] (temsirolimus alone, high doses 10, 30 and 100 mg/kg/day (30, 90 and 300 mg/m^2/day), i.p., Figure 1) is reported as “shows amnesic effects”.

`CCCCCc1cc(O)c2c(c1)OC(C)(C)[C@@H]1CCC(C)=C[C@@H]21` [THC, (-)-(6aR,10aR)-6,6,9-trimethyl-3-pentyl-6a,7,8,10a-tetrahydro-6H-benzo[c]chromen-1-ol]: in the data set on mice [1] (mouse, in vivo), the “anxiety-like effect of THC at low dose” value was “causes anxiolytic effects”. In addition, in the data set with mice [1] (mouse, in vivo, 10 mg/kg/day), the “anxiety-like effect of THC at high doses” value is recorded as “cause anxiogenic effects”. The “analgesic effects (abdominal writhes)” value in the data set on mice [2] (mouse, in vivo) is “has analgesic effects”. Also, in the data set on mice [3] (mouse, in vivo), the “cognitive deficit on chronic administration (object-recognition test)” value is listed as “produces a cognitive deficit” and the “persistence of cognitive deficit after finishing the exposition to THC” value was “continues showing a cognitive deficit during the following four days”. In addition, in the data set with mice [3] (mouse, in vivo, ip), the “amnesic effect in the object-recognition test” value is recorded as “always presents an amnesic effect”.
